Assay results from US20260152533A1, “COMBINATION INHIBITORS FOR TREATING FIBROSIS” (Memorial Sloan-Kettering Cancer Center, priority 2021, published 2026).

Legend:
NIH-3T3 cells [1] = assay: Western blot of NIH-3T3 cells (collagen I, GCN2, ATF4, PC); assay type: cell-based, mouse
Source text: PSCs were isolated from C57BL/6 mice by differential centrifugation as previously described^49 and their mesenchymal origin was validated by analyzing the expression of various mesenchymal and epithelial markers. MFBs were isolated from FVB/N mice by differential centrifugation as previously described^50. DB7 mouse breast cancer cells were obtained from Alexander Borowsky (University of California Davis Comprehensive Cancer Center, Sacramento, CA, USA) through an MTA to Ohio State University (OSU). KPC (Kras^LSL-G12D; Trp53^LSL-R172H; Pdx1-Cre) mouse PDAC cells were a gift from Scott Lowe (Memorial Sloan Kettering Cancer Center. (MSKCC)). All cells were cultured at 37° C. in 5% carbon dioxide (CO2) and 20% oxygen (O2) and were maintained in Dulbecco's Modified Eagles medium (DMEM) (25 mM D-glucose, 2 mM L-glutamine) supplemented with 10% fetal bovine serum (FBS) (Gemini), 100 units/ml penicillin and 100 μg/ml streptomycin. Primary PSC and MFB cells were kept in culture for no more than ten passages. Experiments with iCAFs and myCAFs were performed as previously described^29. In brief, qPSCs were generated by culturing PSCs in a dome of GFR Matrigel (Corning) in DMEM; iCAFs were generated by culturing PSCs in a dome of GFR Matrigel in DMEM conditioned by KPC cells for 48 h; myCAFs were generated by monolayer culture of PSCs. Differentiation was validated by analyzing the expression of iCAF/myCAF markers^29. For experiments with different glutamine concentrations, cells were seeded in regular DMEM and the medium was changed 5-6 hours later or the following day to glucose and glutamine-free DMEM supplemented with 10% dialyzed FBS (Gemini) and 20 mM D-glucose, 2 mM L-glutamine (100%), 0.4 mM L-glutamine (20%) or 0.2 mM L-glutamine (10%). All media were prepared by the Media Preparation Facility at MSKCC. Cells were verified as mycoplasma-free by the MycoAlert Mycoplasma Detection Kit (Lonza).
Lysates were generated by incubating cells or ground tumors in RIPA buffer (Millipore); […] of cleared lysate were analyzed by SDS-polyacrylamide gel electrophoresis (SDS-PAGE) as previously described^11. […] The following secondary antibodies were used: anti-rabbit horseradish peroxidase (HRP) (1:5,000; GE, NA934V), anti-mouse HRP (1:5,000; GE, NA931). Quantification of band intensities of collagen I relative to […] or vinculin in tumor allograft experiments was performed with Image Lab software v6.0 (Bio-Rad).

[2] = tested on: pyruvate carboxylase (PC); assay: Stable isotope tracing in NIH-3T3 cells (surrogate for PC activity); assay type: cell-based, mouse
Protocol: Cells were plated in six-well cell culture plates at a concentration aimed to reach 0.5-1×10^6 cells at the time of harvest. For quantification of relative metabolite abundance, cells were cultured with glutamine-free DMEM containing different concentrations of L-glutamine and supplemented with 10% dialyzed FBS and in some experiments were treated with TGFβ for 48 hours. For the [U-^13C]and [3,4-^13C]glucose tracing experiments, cells were cultured as above, and in the last 8 hours media was replaced with DMEM without D-glucose and L-glutamine supplemented with 2 mM or 0.2 mM L-glutamine and 10 mM [U-^13C]or [3,4-^13C]D-glucose (Cambridge Isotope Laboratories) and 10% dialyzed FBS. For the [U-^13C]and [1-^13C]lactate tracing experiments, cells were cultured in 2 or 0.2 mM L-glutamine, 10 or 1 mM D-glucose in the presence or absence of 10 mM sodium lactate, and in the last 8 hours media was replaced with DMEM without D-glucose and L-glutamine supplemented with 2 mM or 0.2 mM L-glutamine, 10 or 1 mM D-glucose, 10 mM [U-^13C]or [1-^13C]sodium lactate (Cambridge Isotope Laboratories) and 10% dialyzed FBS. For relative quantification of metabolites by gas chromatography-mass spectroscopy (GC-MS), cells were washed briefly with PBS, which was then fully aspirated and metabolism was quenched by immediately adding 1 mL of 80:20 methanol:water stored at −80° C. containing 20 μM deuterated 2-hydroxyglutarate (d5-2HG) as an internal standard. For stable isotope tracing experiments, metabolism was quenched without the PBS washing step by adding 1 mL of 80:20 methanol:water as above. After overnight incubation at −80° C., the resulting extracts were scraped on dry ice, transferred into a 1.5 mL centrifuge tube, and centrifuged at 20,000 g for 20 minutes at 4° C. The supernatants were collected in clean tubes and dried in a vacuum evaporator (Genevac EZ-2 Elite) for 2 hours.
For [U-^13C]glucose tracing into proteinogenic amino acids, cells were cultured in 10% Gln in the presence or absence of TGFβ for 48 hours. In the last 24 hours, the media including all treatments was replaced with DMEM without L-glutamine and D-glucose and supplemented with 0.2 mM L-glutamine and 10 mM [U-^13C]D-glucose (Cambridge Isotope Laboratories) and 10% dialyzed FBS. For [U-^13C]lactate tracing into ECM, confluent cells were cultured in 10% Gln in the presence of 10 mM [U-^13C]sodium lactate for 6 days. The media was replaced every other day. ECM was decellularized as described above. Cells and ECM were washed with PBS, and proteins were precipitated with methanol:chloroform:water (1:1:1). The interphase was washed with methanol, and the dried pellet was subjected to acid hydrolysis with 6 N hydrochloric acid (HCl) and incubation at 95° C. for 16 hours. Samples were cooled to room temperature and centrifuged at 20,000 g for 10 minutes. The cleared supernatant was dried in a vacuum evaporator (Genevac EZ-2 Elite) for 2 hours, and abundance of aspartate, glutamate/glutamine or hydroxyproline isotopologues was measured by GC-MS as described below.
GC-MS measurements were performed as described before^11. Ions used for quantification of metabolite levels were as follows: d5-2HG m/z 354; citrate m/z 465; alpha-ketoglutarate m/z 304; succinate m/z 247; fumarate m/z 245; malate m/z 335; aspartate m/z 232; hydroxyproline m/z 332; proline m/z 216; glutamate m/z 246; glutamine m/z 245; lactate m/z 219; pyruvate m/z 174. All peaks were manually inspected and verified relative to known spectra for each metabolite. Peak identification and integration were done with MassHunter software vB.09 (Agilent Technologies). For relative quantification of cell samples, integrated peak areas were normalized to the internal standard d5-2HG and to the packed cell volume of each sample. Absolute quantification of hydroxyproline in tumor acid hydrolysates was performed against a standard curve of commercial trans-4-hydroxy-L-proline (Sigma). […]

NIH-3T3 cells [3] = settings: proliferative fibroblasts, glutaminase inhibition; cited from earlier work
[4] = 10% Gln, TGFβ, 48 hours (FIG. 1G)

O=C(Cc1cccc(OC(F)(F)F)c1)Nc1ccc(CCCCc2nnc(NC(=O)Cc3ccccn3)s2)nn1 [CB839]
collagen I protein levels (NIH-3T3 cells [1]; [4]): only marginally increased
rescue of GCN2 activation induced by TGFβ treatment (NIH-3T3 cells [1]; [4]): did not rescue
collagen I levels (NIH-3T3 cells [1]; PC-deleted cells (PC sgRNA), CB839, 48 hours (FIG. 4H)): reduced collagen I levels
collagen I levels (NIH-3T3 cells [1]; full medium (100% Gln), CB839 1 μM alone, 48 hours (FIG. 4E)): did not affect
m+1 labelling of aspartate and pyruvate carboxylation activity from [3,4-13C]Glc ([2]; 100% Gln, CB839, 48 hours (FIG. 4G)): increased
m+3 labelling of TCA cycle intermediates and related NEAAs from [U-13C]Glc ([2]; CB839, 48 hours (FIG. 4F), indicative of anaplerosis via PC): increased
Gln-tRNA charging (NIH-3T3 cells [3]): restored
